Results taken from patent US6936602B1, “Benzazepine derivatives, process for the preparation of the same and uses thereof” (Takeda Chemical Industries, Ltd., priority 1999, dated 2005).

Row | melting point [°C] | Compound
1 | 122 to 125 | CCOCCOc1ccc(-c2ccc3c(c2)C=C(C(=O)Nc2ccc(CN(C)C4CCOCC4)cc2)CCN3C)cc1 [Compound 9, 7-[4-(2-ethoxyethoxy)phenyl]-1-methyl-N-[4-[[N-methyl-N-(tetrahydro-2H-pyran-4-yl)amino]methyl]phenyl]-2,3-dihydro-1H-1-benzazepine-4-carboxamide]
2 | 136 to 138 | CCCOCCOc1ccc(-c2ccc3c(c2)C=C(C(=O)Nc2ccc(CN(C)C4CCOCC4)cc2)CCN3C)cc1 [Compound 12, 1-methyl-N-[4-[[N-methyl-N-(tetrahydro-2H-pyran-4-yl)amino]methyl]phenyl]-7-[4-(2-propoxyethoxy)phenyl]-2,3-dihydro-1H-benzazepine-4-carboxamide]
3 | 98 to 100 | CCOCCCOc1ccc(-c2ccc3c(c2)C=C(C(=O)Nc2ccc(CN(C)C4CCOCC4)cc2)CCN3C)cc1 [Compound 13, 7-[4-(3-ethoxypropoxy)phenyl]-1-methyl-N-[4-[[N-methyl-N-(tetrahydro-2H-pyran-4-yl)amino]methyl]phenyl]-2,3-dihydro-1H-1-benzazepine-4-carboxamide]

Second part, the compound before the results:

Row | Compound | melting point [°C]
4 | CCCOCCOc1ccc(-c2ccc3c(c2)C=C(C(=O)Nc2ccc(CN(C)C4CCOCC4)cc2)CCN3c2ccccc2)cc1.Cl | 223 to 224
5 | CCOCCN(C)c1ccc(-c2ccc3c(c2)C=C(C(=O)Nc2ccc(CN(C)C4CCOCC4)cc2)CCN3C=O)cc1 [Compound 4, 7-[4-[N-(2-ethoxyethyl)-N-methylamino]phenyl]-1-formyl-N-[4-[[N-methyl-N-(tetrahydro-2H-pyran-4-yl)amino]methyl]phenyl]-2,3-dihydro-1H-1-benzazepine-4-carboxamide] | 157 to 158
6 | CCOCCN(CC)c1ccc(-c2ccc3c(c2)C=C(C(=O)Nc2ccc(CN(C)C4CCOCC4)cc2)CCN3C=O)cc1 [Compound 5, 7-[4-[N-(2-ethoxyethyl)-N-ethylamino]phenyl]-1-formyl-N-[4-[[N-methyl-N-(tetrahydro-2H-pyran-4-yl)amino]methyl]phenyl]-2,3-dihydro-1H-1-benzazepine-4-carboxamide] | 162 to 164
7 | CCCOCCN(CC)c1ccc(-c2ccc3c(c2)C=C(C(=O)Nc2ccc(CN(C)C4CCOCC4)cc2)CCN3C=O)cc1 [Compound 6, 7-[4-[N-ethyl-N-(2-propoxyethyl)amino]phenyl]-1-formyl-N-[4-[[N-methyl-N-(tetrahydro-2H-pyran-4-yl)amino]methyl]phenyl]-2,3-dihydro-1H-1-benzazepine-4-carboxamide] | 146 to 149
8 | CCOCCCOc1ccc(-c2ccc3c(c2)C=C(C(=O)Nc2ccc(CN(C)C4CCOCC4)cc2)CCN3S(C)(=O)=O)cc1 [Compound 8, 7-[4-(3-ethoxypropoxy)phenyl)-1-methanesulfonyl-N-[4-[[N-methyl-N-(tetrahydro-2H-pyran-4-yl)amino]methyl]phenyl]-2,3-dihydro-1H-1-benzazepine-4-carboxamide] | 157 to 160
9 | CC(C)OCCOc1ccc(-c2ccc3c(c2)C=C(C(=O)N(c2ccc(CN(C)C4CCOCC4)cc2)S(C)(=O)=O)CCN3)cc1 [Compound 15, 1-methylsulfonyl N-[4-[[N-methyl-N-(tetrahydro-2H-pyran-4-yl)amino]methyl]phenyl]-7-[4-(2-propoxy)ethoxyphenyl]-2,3-dihydro-1H-1-benzazepine-4-carboxamide] | 161 to 162
10 | CCCCOCCOc1ccc(-c2ccc3c(c2)C=C(C(=O)Nc2ccc(CN(C)C4CCOCC4)cc2)CCN3C)cc1 [Compound 18, 7-[4-(2-butoxyethoxy)phenyl]-1-methyl-N-[4-[[N-methyl-N-(tetrahydro-2H-pyran-4-yl)amino]methyl]phenyl]-2,3-dihydro-1H-1-benzazepine-4-carboxamide] | 107 to 110
